According to ChEMBL document CHEMBL3596180, “Evaluation of histone deacetylase inhibitors (HDACi) as therapeutic leads for human African trypanosomiasis (HAT)” (Bioorg Med Chem, 2015):
The source made the active and inactive calls. The rule behind the calls is not given here.

Experiments:
[1] = test system: Trypanosoma brucei brucei; assay: Antitrypanosomal activity against Trypanosoma brucei brucei 427 assessed as inhibition of parasite proliferation measured as ATP levels after 48 hrs by luciferase-based assay; format: functional, organism-based; details: Trypanosoma brucei, 427, 48 h
[2] = target: T1, Polyamine deacetylase HDAC10 (Homo sapiens, UniProt Q969S8); assay: Inhibition of human HDAC10
T1 sequence (Q969S8 whole entry): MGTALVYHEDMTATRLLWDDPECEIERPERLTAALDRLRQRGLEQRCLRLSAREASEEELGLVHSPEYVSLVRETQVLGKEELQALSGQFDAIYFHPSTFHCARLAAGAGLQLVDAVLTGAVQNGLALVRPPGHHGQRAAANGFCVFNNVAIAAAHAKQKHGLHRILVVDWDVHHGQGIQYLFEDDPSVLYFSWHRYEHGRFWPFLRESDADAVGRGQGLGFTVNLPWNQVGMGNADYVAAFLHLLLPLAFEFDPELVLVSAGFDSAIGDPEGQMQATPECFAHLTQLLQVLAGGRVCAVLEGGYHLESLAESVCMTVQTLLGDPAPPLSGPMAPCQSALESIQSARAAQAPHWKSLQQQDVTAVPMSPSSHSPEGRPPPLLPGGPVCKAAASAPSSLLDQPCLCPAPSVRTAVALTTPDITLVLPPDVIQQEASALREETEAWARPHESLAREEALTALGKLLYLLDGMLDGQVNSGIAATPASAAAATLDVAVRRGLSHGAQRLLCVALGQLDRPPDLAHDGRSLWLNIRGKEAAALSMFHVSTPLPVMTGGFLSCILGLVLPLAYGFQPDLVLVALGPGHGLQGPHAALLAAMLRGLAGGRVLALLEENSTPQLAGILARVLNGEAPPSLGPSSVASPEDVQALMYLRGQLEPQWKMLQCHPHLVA

Histone deacetylase 9 = Histone deacetylase 9 (Homo sapiens, UniProt Q9UKV0); assay: Inhibition of human HDAC9
Chain of Histone deacetylase 9 (Q9UKV0 whole entry): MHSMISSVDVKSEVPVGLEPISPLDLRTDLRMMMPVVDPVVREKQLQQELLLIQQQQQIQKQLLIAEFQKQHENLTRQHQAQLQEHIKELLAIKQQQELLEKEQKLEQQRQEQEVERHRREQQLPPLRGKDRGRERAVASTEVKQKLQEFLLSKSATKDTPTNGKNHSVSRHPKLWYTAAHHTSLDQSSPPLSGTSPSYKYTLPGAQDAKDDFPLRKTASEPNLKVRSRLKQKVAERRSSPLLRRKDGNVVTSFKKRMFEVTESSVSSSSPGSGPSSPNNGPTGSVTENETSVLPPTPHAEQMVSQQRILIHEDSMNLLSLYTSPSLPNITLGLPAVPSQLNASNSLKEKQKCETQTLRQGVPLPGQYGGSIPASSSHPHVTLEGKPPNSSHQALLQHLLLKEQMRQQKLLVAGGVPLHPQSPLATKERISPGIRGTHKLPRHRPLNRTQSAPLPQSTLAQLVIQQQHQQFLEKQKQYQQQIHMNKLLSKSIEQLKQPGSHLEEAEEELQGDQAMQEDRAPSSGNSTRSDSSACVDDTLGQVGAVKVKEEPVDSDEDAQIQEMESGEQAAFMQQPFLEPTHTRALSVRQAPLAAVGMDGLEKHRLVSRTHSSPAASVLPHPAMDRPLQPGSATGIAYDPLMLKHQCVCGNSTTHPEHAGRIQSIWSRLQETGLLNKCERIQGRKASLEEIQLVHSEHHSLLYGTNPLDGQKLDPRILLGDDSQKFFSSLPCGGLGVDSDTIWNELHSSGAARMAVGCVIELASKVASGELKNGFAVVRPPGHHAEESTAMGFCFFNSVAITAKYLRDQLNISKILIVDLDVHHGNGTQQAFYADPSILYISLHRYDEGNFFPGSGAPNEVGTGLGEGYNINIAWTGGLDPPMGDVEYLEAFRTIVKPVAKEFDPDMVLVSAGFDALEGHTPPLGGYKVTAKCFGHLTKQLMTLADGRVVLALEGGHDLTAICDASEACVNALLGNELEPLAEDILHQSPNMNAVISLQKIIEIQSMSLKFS

[3] = Cmax in po dosed human measured under phase 1 trial; format: ADME, organism-based; set-up: route oral; details: in vivo
Histone deacetylase 5 = Histone deacetylase 5 (Homo sapiens, UniProt Q9UQL6); assay: Inhibition of human HDAC5
Chain of Histone deacetylase 5 (Q9UQL6 whole entry): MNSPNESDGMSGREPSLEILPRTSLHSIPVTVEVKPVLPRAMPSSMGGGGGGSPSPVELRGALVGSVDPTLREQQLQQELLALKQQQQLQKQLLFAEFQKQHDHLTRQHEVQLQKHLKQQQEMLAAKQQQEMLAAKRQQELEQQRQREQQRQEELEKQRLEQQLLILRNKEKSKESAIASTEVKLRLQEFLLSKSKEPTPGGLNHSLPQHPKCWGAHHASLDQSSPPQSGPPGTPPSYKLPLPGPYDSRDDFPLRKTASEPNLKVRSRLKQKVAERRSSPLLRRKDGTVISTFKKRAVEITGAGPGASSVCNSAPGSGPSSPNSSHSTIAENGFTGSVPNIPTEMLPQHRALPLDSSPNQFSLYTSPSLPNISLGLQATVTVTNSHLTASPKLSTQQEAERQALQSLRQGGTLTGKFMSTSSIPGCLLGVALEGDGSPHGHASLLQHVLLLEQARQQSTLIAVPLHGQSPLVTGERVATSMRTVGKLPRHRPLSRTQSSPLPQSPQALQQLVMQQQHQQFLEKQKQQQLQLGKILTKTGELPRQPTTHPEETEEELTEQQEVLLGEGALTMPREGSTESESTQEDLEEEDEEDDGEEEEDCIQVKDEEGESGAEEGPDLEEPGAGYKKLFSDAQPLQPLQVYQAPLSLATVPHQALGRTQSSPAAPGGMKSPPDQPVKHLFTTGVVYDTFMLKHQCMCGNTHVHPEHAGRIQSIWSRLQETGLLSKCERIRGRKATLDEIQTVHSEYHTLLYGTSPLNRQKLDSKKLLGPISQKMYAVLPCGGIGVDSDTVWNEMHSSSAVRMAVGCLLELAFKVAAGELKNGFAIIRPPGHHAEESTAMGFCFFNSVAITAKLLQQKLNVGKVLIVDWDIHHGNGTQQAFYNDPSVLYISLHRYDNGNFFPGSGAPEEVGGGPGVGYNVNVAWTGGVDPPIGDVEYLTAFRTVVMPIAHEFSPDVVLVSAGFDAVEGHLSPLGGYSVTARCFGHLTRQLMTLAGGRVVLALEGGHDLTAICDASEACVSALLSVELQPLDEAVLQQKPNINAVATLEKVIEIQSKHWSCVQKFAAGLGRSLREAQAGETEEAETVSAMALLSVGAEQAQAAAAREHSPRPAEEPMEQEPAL

[4] = Tmax in po dosed human measured under phase 1 trial; format: ADME, organism-based; details: in vivo
[5] = AUC in po dosed human measured under phase 1 trial; format: ADME, organism-based; details: in vivo
Homo sapiens = species on record: Homo sapiens; assay: Half-life in human; format: ADME, organism-based; details: in vivo
[6] = Cmax in human; format: ADME, organism-based; details: in vivo
[7] = test system: Trypanosoma brucei brucei; assay: Trypanocidal activity against Trypanosoma brucei brucei assessed as killing of parasite densities of 10^4 to 10^6 cells/ml at 2.2 uM by clonal dilution method; format: functional, organism-based
Histone deacetylase 2 = Histone deacetylase 2 (Homo sapiens, UniProt Q92769); assay: Inhibition of human HDAC2
Chain of Histone deacetylase 2 (Q92769 whole entry): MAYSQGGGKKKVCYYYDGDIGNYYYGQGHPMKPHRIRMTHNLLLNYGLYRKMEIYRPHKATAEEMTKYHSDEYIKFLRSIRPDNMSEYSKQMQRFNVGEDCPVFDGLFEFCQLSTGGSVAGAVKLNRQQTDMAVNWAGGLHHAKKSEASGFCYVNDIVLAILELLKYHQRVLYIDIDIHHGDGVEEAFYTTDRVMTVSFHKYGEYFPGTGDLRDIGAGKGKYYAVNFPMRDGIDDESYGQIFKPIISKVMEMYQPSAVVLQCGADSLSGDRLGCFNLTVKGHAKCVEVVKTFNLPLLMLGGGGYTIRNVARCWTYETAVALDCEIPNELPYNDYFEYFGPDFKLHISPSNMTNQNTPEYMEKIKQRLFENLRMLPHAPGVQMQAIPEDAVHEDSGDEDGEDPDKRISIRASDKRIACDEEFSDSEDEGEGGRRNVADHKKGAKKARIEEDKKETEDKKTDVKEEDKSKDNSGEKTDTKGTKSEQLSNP

Histone deacetylase 1 = Histone deacetylase 1 (Homo sapiens, UniProt Q13547); assay: Inhibition of human HDAC1
Chain of Histone deacetylase 1 (Q13547 whole entry): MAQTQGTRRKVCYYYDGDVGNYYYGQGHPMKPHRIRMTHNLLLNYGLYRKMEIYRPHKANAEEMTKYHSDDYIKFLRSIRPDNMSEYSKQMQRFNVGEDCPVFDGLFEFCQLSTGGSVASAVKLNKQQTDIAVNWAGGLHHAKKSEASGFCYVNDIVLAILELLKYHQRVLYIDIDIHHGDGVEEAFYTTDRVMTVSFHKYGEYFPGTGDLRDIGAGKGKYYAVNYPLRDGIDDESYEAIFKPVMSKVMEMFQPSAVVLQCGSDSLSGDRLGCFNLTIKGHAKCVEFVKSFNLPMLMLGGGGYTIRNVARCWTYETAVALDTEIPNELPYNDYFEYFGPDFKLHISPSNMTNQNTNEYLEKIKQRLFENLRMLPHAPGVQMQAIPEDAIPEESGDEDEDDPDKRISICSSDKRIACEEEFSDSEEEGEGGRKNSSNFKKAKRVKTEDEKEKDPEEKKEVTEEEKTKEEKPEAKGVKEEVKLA

Histone deacetylase 7 = target: T2, Histone deacetylase 7 (Homo sapiens, UniProt Q8WUI4); assay: Inhibition of human HDAC7
T2 sequence (Q8WUI4 whole entry): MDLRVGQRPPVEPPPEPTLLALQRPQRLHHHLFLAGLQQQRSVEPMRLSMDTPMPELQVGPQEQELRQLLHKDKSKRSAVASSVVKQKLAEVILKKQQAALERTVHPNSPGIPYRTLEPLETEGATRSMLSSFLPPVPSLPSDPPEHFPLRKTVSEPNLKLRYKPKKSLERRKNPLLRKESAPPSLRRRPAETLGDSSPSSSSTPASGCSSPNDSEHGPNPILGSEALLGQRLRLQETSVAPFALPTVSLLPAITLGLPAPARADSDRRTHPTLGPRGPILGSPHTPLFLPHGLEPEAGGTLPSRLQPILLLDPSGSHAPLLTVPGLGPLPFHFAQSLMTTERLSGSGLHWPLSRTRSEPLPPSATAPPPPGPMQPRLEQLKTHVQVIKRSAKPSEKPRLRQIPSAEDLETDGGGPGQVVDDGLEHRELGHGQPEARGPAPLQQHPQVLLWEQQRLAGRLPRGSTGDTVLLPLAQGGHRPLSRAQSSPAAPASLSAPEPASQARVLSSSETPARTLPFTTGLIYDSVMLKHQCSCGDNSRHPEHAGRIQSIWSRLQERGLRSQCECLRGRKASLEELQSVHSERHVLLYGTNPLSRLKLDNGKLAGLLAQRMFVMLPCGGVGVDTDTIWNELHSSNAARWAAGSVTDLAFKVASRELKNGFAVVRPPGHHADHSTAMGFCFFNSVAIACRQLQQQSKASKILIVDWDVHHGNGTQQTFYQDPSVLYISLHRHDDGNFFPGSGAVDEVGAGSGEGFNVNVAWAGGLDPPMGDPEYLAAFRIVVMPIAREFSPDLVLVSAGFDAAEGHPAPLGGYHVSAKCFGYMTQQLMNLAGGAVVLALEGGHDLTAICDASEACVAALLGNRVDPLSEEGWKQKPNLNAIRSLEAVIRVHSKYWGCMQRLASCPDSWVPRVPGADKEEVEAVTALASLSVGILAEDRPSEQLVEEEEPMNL

O=C(/C=C\c1cccc(C(=O)NO)c1)NO
EC50 [1]: 7000 nM

CN(C)Cc1c(C(=O)NCCOc2ccc(C(=O)NO)cc2)oc2ccccc12 [ABEXINOSTAT]
EC50 [1]: 8610 nM

O=C(/C=C/C#Cc1ccc(NS(=O)(=O)c2ccccc2)cc1)NO [OXAMFLATIN]
EC50 [1]: 4060 nM

Cn1cc(CNCC2CCN(c3ncc(C(=O)NO)cn3)CC2)c2ccccc21 [QUISINOSTAT]
EC50 [1]: 29 nM
Ki [2]: 0.05 nM
Ki (Histone deacetylase 9): 3.8 nM
Cmax [3]: 3 nM
Ki (Histone deacetylase 5): 2.1 nM
Tmax [4]: 4 h
AUC [5]: 9.77 ng·h/mL

N=C(N)c1ccc(OCCCCCOc2ccc(C(=N)N)cc2)cc1 [PENTAMIDINE]
t1/2 (Homo sapiens): 265 h
Cmax [6]: 900 nM
Activity [7]: Active

O=C(CCCCCCC(=O)Nc1ccc([C@H]2O[C@@H](CSc3nc(-c4ccccc4)c(-c4ccccc4)o3)C[C@@H](c3ccc(CO)cc3)O2)cc1)NO [TUBACIN]
Ki (Histone deacetylase 2): 1180 nM
EC50 [1]: 3380 nM
Ki (Histone deacetylase 1): 326 nM
Ki (Histone deacetylase 5): 1920 nM
Ki (Histone deacetylase 7): 5430 nM

CN1CCc2c(c3ccccc3n2Cc2ccc(C(=O)NO)cc2)C1 [TUBASTATIN A]
EC50 [1]: 2750 nM

CC(C)(CCc1ccccc1)C(=O)Nc1ccc(C(=O)NO)cc1
EC50 [1]: 6550 nM
